Experiment: Particle size and specific surface area analysis (Malvern Mastersizer 3000, laser diffraction)
Type: physicochemical
Details: for D10 / D50 / D90: particle size of desidustat used in the composition
Experimental: (i) Particle Size and Specific Surface Area Analysis Method:
Particle size was determined by Malvern Mastersizer 3000 with Hydro MV accessory, laser diffraction particle size analyser. About 100 mg of drug substance weighed and transferred into 100 mL of glass beaker. About 10-15 drops of dispersant sunflower oil:cyclohexane (80:20) were added and the lumps were broken with glass rod for about 3 to 5 min. 20 mL of dispersant was added into the same glass beaker and the content were shaken for 3-5 minutes with glass rod to mix well. Background measurement using dispersant was performed. When the blank correction/background measurement was over, sample slurry (with continuous manual shaking) was added in the sampler at 1500 rpm to get the target obscuration value between 10% and 30% and remained constant. Then the histogram was recorded.

[1] = Example 1, after further multi-milling using 0.2 mm sieve

D10 | D50 | D90 | Particle size distribution D10 [1] | Particle size distribution D50 [1] | Particle size distribution D90 [1] | Specific surface area [1] | Particle size D90 (Example 1, after multi-milling using 5 mm sieve and drying, before 0.2 mm sieve) | Structure (SMILES)
0.80 μm | 22.7 μm | 130.0 μm | – | – | – | – | – | O=C(O)CNC(=O)c1c(O)c2ccccc2n(OCC2CC2)c1=O [Milled desidustat]
2.16 μm | 98.3 μm | 366 μm | – | – | – | – | – | O=C(O)CNC(=O)c1c(O)c2ccccc2n(OCC2CC2)c1=O [Unmilled desidustat]
– | – | – | 0.80 μm | 22.7 μm | 130 μm | 2 m^2/g | 366 μm | O=C(O)CNC(=O)c1c(O)c2ccccc2n(OCC2CC2)c1=O [desidustat, 2-(1-(Cyclopropylmethoxy)-4-hydroxy-2-oxo-1,2-dihydroquinoline-3-carboxamido) acetic acid]
